Source: article doi:10.1101/2021.05.28.446239v2 (biorxiv, 2021)

Experiments:
[1] = test system: truncated lungfish MR (MR-CDE); test: luciferase reporter transactivation; assay type: cell-based, Protopterus dolloi; conditions: agonist; HEK293, TAT3-luc promoter
[2] = test system: full-length lungfish MR; test: luciferase reporter transactivation; assay type: cell-based, Protopterus dolloi; conditions: agonist; HEK293, TAT3-luc promoter

Row | SMILES | EC50 [1] | EC50 [2]
1 | C[C@]12C=CC(=O)C=C1CC[C@H]1[C@@H]3C[C@@H](O)[C@](O)(C(=O)CO)[C@@]3(C)C[C@H](O)[C@@]12F [triamcinolone] | 2.4 nM | 1.3 nM
2 | C[C@@H]1C[C@H]2[C@@H]3CCC4=CC(=O)C=C[C@]4(C)[C@@]3(F)[C@@H](O)C[C@]2(C)[C@@]1(O)C(=O)CO [dexamethasone] | 7.7 nM | 4.7 nM
3 | C[C@]12CCC(=O)C=C1CC[C@@H]1[C@@H]2[C@@H](O)C[C@]2(C=O)[C@@H](C(=O)CO)CC[C@@H]12 [aldosterone] | 0.24 nM | 0.04 nM
4 | C[C@]12CC[C@H]3[C@@H](CCC4=CC(=O)CC[C@@]43C)[C@@H]1CC[C@@H]2C(=O)CO [11-deoxycorticosterone] | 0.13 nM | 0.04 nM
5 | C[C@]12C[C@H](O)[C@H]3[C@@H](CCC4=CC(=O)CC[C@@]43C)[C@@H]1CC[C@@H]2C(=O)CO [corticosterone] | 85.5 nM | 23.1 nM
6 | C[C@]12CCC(=O)C=C1CC[C@@H]1[C@@H]2CC[C@@]2(C)[C@H]1CC[C@]2(O)C(=O)CO [11-deoxycortisol] | 0.27 nM | 0.17 nM
7 | C[C@]12CCC(=O)C=C1CC[C@@H]1[C@@H]2[C@@H](O)C[C@@]2(C)[C@H]1CC[C@]2(O)C(=O)CO [cortisol] | 86.7 nM | 66.1 nM
8 | CC(=O)[C@H]1CC[C@H]2[C@@H]3CCC4=CC(=O)CC[C@]4(C)[C@H]3CC[C@]12C [progesterone] | 0.044 nM | 0.03 nM
